Source: patent publication US11357779B2 (G1 Therapeutics, Inc., priority 2018, dated 2022)
Like-named read-outs stand apart in the source and are kept apart here.

Legend:
ME-016 tumor = assay: Murine BRAFmut melanoma PDX model, tumor growth and survival; type: in vivo; conditions: ME-016 tumor-containing mice; Compound I 100 mg/kg, dabrafenib 25 mg/kg, trametinib 1 mg/kg
Description: Mice containing a ME-016 tumor were treated with vehicle, Compound I (100 mg/kg), dabrafenib (25 mg/kg), trametinib (1 mg/kg), Compound I+dabrafenib, Compound I+trametinib, dabrafenib+trametinib, and Compound I+dabrafenib+trametinib.

[1] = Steady-state AUC0-24,ss, (AUC0-24,ss)/dose, half-life and time to steady state: Compound I versus palbociclib, ribociclib, abemaciclib; type: in vivo, human; conditions: for (Mean AUC0-24,ss)/Dose (mg) / Cmax / AUC(0-t): Day 29; for AUC(0-t): read-out: Mean AUC0-24,ss
Description: The time to reach steady state was defined as five half-lives (97% steady state achieved). […] The AUC data are presented as the arithmetic mean. […] The AUC data are presented as the geometric mean. The steady-state AUC0-24 for various BID doses of abemaciclib provided in Table 89 was obtained from the above cited prior published studies. The AUC data are presented as the geometric mean.

[2] = human, in vivo
Description: Absolute neutrophil count (ANC) was determined from the blood sample obtained from subjects described in Example 1 on day 22 using standard methods.
Absolute neutrophil count (ANC) was also determined for blood samples obtained from subjects in all dosing cohorts (200 mg QD, 300 mg QD, 400 mg QD, 500 mg QD, 100 mg BID, and 150 mg BID dosage of Form B of Compound II).

[3] = 200 mg QD of Form B of Compound II, five half-lives
[4] = human, plasma, oral, 200 mg QD of Form B of Compound II
[5] = human, plasma, oral, 300 mg QD of Form B of Compound II
[6] = human, plasma, oral, 400 mg QD of Form B of Compound II
[7] = human, plasma, oral, 500 mg QD of Form B of Compound II
[8] = human, plasma, oral, 650 mg QD of Form B of Compound II

CC(C)N1CCN(c2ccc(Nc3ncc4cc5n(c4n3)C3(CCCCC3)CNC5=O)nc2)CC1 [Compound I, 2′-((5-(4-isopropylpiperazin-1-yl)pyridin-2-yl)amino)-7′,8′-dihydro-6′H-spiro[cyclohexane-1,9′-pyrazino[1′,2′:1,5]pyrrolo[2,3-d]pyrimidin]-6′-one]
Median OS (ME-016 tumor): 42.5 days
(Mean AUC0-24,ss)/Dose (mg) ([1]; 200 mg QD of Form B of Compound II): 1.15 ng·h/mL/mg
Time to Steady State [1, 3]: 3.2 days
Time to Steady-State [1, 3]: 76 h
(Mean AUC0-24,ss)/Dose (mg) ([1]; 300 mg QD of Form B of Compound II): 1.97 ng·h/mL/mg
(Mean AUC0-24,ss)/Dose (mg) ([1]; 400 mg QD of Form B of Compound II): 0.695 ng·h/mL/mg
(Mean AUC0-24,ss)/Dose (mg) ([1]; 500 mg QD of Form B of Compound II): 1.21 ng·h/mL/mg
(Mean AUC0-24,ss)/Dose (mg) ([1]; 650 mg QD of Form B of Compound II): 1.47 ng·h/mL/mg
(AUC0-24,ss)/Dose ([1]; Compound I, Day 29, QD dosing of Form B of Compound II): ≤ 5
half-life [1, 4]: 15.2 h
Cmax [1, 4]: 20.4 ng/mL
AUC(0-t) [1, 4]: 229 ng·h/mL
Cmax [1, 5]: 47 ng/mL
AUC(0-t) [1, 5]: 592 ng·h/mL
Cmax [1, 6]: 19 ng/mL
AUC(0-t) [1, 6]: 278 ng·h/mL
Cmax [1, 7]: 43.2 ng/mL
AUC(0-t) [1, 7]: 607 ng·h/mL
Cmax [1, 8]: 66 ng/mL
AUC(0-t) [1, 8]: 956 ng·h/mL
(AUC0-24,ss)/ANC ([2]; 200 mg): 0.10
(AUC0-24,ss)/ANC ([2]; 300 mg): 0.47
(AUC0-24,ss)/ANC ([2]; 400 mg): 0.15
